From US7615380B2, “Methods for modulating an immune response by modulating KRC activity” (President and Fellows of Harvard College, priority 2001, dated 2009)

Experiments:
NFκB = NFκB luciferase reporter transfection assay in 293T cells; assay type: cell-based, human
Protocol: FIGS. 2(A)-2(C) depicts KRC preventing TRAF-dependent NFkB activation. Inhibition of TRAF2 (FIG. 2(A)), TRAF5 (FIG. 2(B)) and TRAF6 (FIG. 2(C)) mediated activation of NFkB by ectopically expressed KRC. 293 T cells (3×10^5 ) were transfected with 25 ng of NFkB luciferase reporter plasmid, 50 ng of CMVβGal and 1 μg of each indicated plasmid and 24 hours post transfection cells were harvested. Data from at least five experiments normalized for β galactosidase activity are shown. Vec refers to the empty MYC vector without the addition of TRAFs.
293 T cells (3×10^5 ) were transfected with 25 ng of NFκB luciferase reporter plasmid, 50 ng of CMVβGal and 1 μg of each indicated plasmid and 24 hours post transfection cells were stimulated for 4 hours with 10 ng/ml of TNFα. (A) KRC and KRC tr (B) dominant negative and antisense KRC (C) antisense KRC in the presence of exogenous TRAF2. Data from at least five experiments normalized for β galactosidase activity are shown.
(§1) HEK293 cells ([…] per well) were seeded in 6 well plates, and 12 h later cells were transfected with EFECTENE™ (Qiagen) with 25 ng of a 2XNFκB-luciferase (Luc) reporter gene plasmid and 0.5 μg of the indicated TRAF and KRC expression vectors. Total amounts of transfected DNA were kept constant by supplementing with control empty expression vector plasmids as needed. Cell extracts were prepared 24 h after transfection, and reporter gene activity was determined via the luciferase assay system (PROMEGA). PRSV-βGal vector (50 ng) was used to normalize for transfection efficiency by measuring β galactosidase activity using the Galacton-PLUS substrate system (TROPIX, Inc.). Whenever indicated, the cells were treated for 4 hours with TNFα or IL-1 (10 ng/ml). To generate stable transfectants, EFECTENE™ mediated transfection of the RAW cell line was performed and clones were selected and maintained in complete medium supplemented with G418 (2 mg/ml).

TNFα = assay: Northern blot of endogenous TNFα in stably transfected RAW macrophage clones; assay type: cell-based; settings: stable RAW transfectants, baseline
Protocol: Northern blotting analysis was performed using total RNA made from RAW cell lines transfected with an empty vector as a control and from a panel of 9 independent RAW clones stably transfected with full-length KRC (upper) and 3 RAW clones stably transfected with dominant negative KRC (lower). The blot was probed with a TNFα cDNA and with HPRT as loading control.
as §1, with “mg/ml). […]” for “mg/ml).”

CD69 = CD69 expression by FACS in transfected Jurkat T cells; assay type: cell-based, human
Protocol: KRC was transfected into Jurkat T cells and CD69 expression was measured by FACS analysis.

IL-2 promoter = assay: IL-2 promoter, NFAT/AP-1 and NFAT luciferase reporters and IL-2 RT-PCR in Jurkat cells; assay type: cell-based, human
Protocol: FIG. 19(A) Stably transfected Jurkat T cell clones with vector (vec) or KRC (Jurkat-KRC) were stimulated with PMA (50 ng/mL) plus ionomycin (2 μM) for 6 hours. IL-2 mRNA abundance was determined by RT-PCR with tubulin as an internal control. FIG. 19(B) Jurkat cells were transiently transfected with an IL-2-Luciferase reporter along with Vector, KRC, or KRCtr (amino acids 204-1055) and, in all cases, a CMV-β-Gal reporter as an internal control (see text for details). 24 hours later, cells were stimulated with PMA plus ionomycin for 6 hours (upper panel) or Raji cells loaded with SEE for 8 hours (lower panel). Luciferase activity was determined and normalized for β-Galactosidase activity. FIG. 19(C) Jurkat cells were transiently transfected with NFAT/AP-1-, NFAT-, or AP-1-Luciferase reporters and treated as above.
For each transfection, 5×10^6 Jurkat cells were incubated with either IL2-Luc, NFAT/AP1-Luc or AP1-Luc reporter DNA together with pEF vector or pEF-KRC and CMV-βGAL as normalization control in 0.4 ml of RPMI and transfected by electroporation (260 v, 975 uF). Transfected cells were cultured at 37° C. for 20 h in RPMI 1640 medium (Gibco BRL) supplemented with 10% fetal bovine serum. Transfected cells were stimulated with PMA (50 ng/ml) and ionomycin (2 uM) for 6 hours prior to luciferase (Promega) and β-galactosidase assays (Galacton-PLUS substrate system, TROPIX, Inc).
Total RNA was isolated from T cells using TRIZOL™ reagent (Gibco/BRL). One (1) μg of total RNA was reverse transcribed using iScript cDNA Synthesis Kit (BioRad). PCR was performed with 2 uM of each primer (listed below) and 2.5 units of Platinum High fidelity enzyme (Invitrogen) according to the manufacturer.
Jurkat cells were transfected by electroporation and incubated for 20 h at 37° C. before stimulation for 8 h with the Raj i B cell line and Staphylococcal Enteroxin E (SEE) using Raji cells (1:1 with Jurkat cells) and SEE (200 ng/ml).

c-Jun/c-Fos AP-1 = assay: c-Jun/c-Fos protein stability time course with cycloheximide; assay type: cell-based
Protocol: The above experiments mapped the interaction site of KRC with c-Jun to aa 204-1055 of KRC. The interaction of full-length KRC with c-Jun was tested. […] Time course experiments were performed in which overexpressed sense KRC or an antisense KRC previously shown to block production of endogenous KRC protein were coimmunoprecipitated with overexpressed c-Jun and c-Fos. […] The same set of experiments were performed using c-Fos, a very short-lived cellular protein. […] The ability of KRC to promote the degradation of other fos family members Fra1, Fra2 and Fos B was also tested (FIG. 23(D)). […] The protein stability of V-fos was not affected by altering levels of KRC by sense or antisense overexpression.

F-actin = F-actin immunofluorescence in Jurkat T cells; assay type: cell-based, human
Protocol: Immunofluorescence of F-actin upon KRC overexpression in Jurkat T cells was performed.

Q: Which “NFκB activation induced by TRAF5 and TRAF6” value (NFκB; 293T cells) does the source give for “KRC: full-length KRC zinc finger protein (SEQ ID NO:2) overexpressed from an expression vector” here?
A: substantially but not completely affected

Q: And the NFkB-dependent transactivation (NFκB; 293T cells, absence of exogenous TRAFs)?
A: blocked NFkB-dependent transactivation

Q: What about the “TRAF2-induced NFκB activation” value (NFκB; 293T cells, exogenous TRAF2) of the same substance?
A: blocked TRAF2-induced NFκB activation

Q: What about the “TNFα-induced NFκB activation” value (NFκB; 293 cells, 10 ng/ml TNFα 4 hours) of the same substance?
A: strongly inhibited TNFα-induced NFκB activation

Q: What about the “endogenous TNFα mRNA expression” value (TNFα) of the same substance?
A: substantial decrease of baseline TNFα mRNA transcripts

Q: And the CD69 expression (CD69)?
A: increases expression of CD69

Q: What about the “PMA/ionomycin induced activity of NFAT reporter” value (IL-2 promoter; Jurkat cells) of the same substance?
A: not further increased

Q: And the IL-2 promoter-luciferase induction (IL-2 promoter; Jurkat cells, PMA plus ionomycin)?
A: approximately 10 fold

Q: And the “transactivation of multimerized NFAT/AP-1 and AP-1 elements” value (IL-2 promoter; Jurkat cells, PMA/ionomycin)?
A: enhanced PMA/ionomycin-induced transactivation

Q: And the “IL-2 promoter activity increase” value (IL-2 promoter; Jurkat cells, Raji cells plus SEE)?
A: approximately 10 fold

Q: What about the “IL-2 mRNA transcripts (RT PCR)” value (IL-2 promoter; stable Jurkat clones, activated) of the same substance?
A: higher levels of IL-2 transcripts

Q: What about the c-Jun degradation (c-Jun/c-Fos AP-1; low dose cycloheximide) of the same substance?
A: rapid degradation of c-Jun

Q: What about the “stability of the c-Fos protein” value (c-Jun/c-Fos AP-1; presence of cycloheximide) of the same substance?
A: compromised

Q: What about the “actin polymerization (F-actin)” value (F-actin) of the same substance?
A: reorganization of F-actin filaments
